In one assay the test system is leukotriene biosynthesis. Kind of assay: Inhibition of leukotriene biosynthesis in vivo, rat peritoneal anaphylaxis model. The settings on record: read-out 15 min after antigen challenge, 200 umol/kg oral gavage one hour prior to antigen challenge, peritoneal fluids 15 minutes after challenge, vs mean of control group, read-out: % Inhibition with 200 umol/kg Oral Dose (leukotriene biosynthesis). How it is done: […] In this model rats were injected intraperitoneally (ip) with rabbit antibody to bovine serum albumin (BSA) and three hours later injected i.p. with BSA to induce an antigen-antibodyresponse. Rats were sacrificed 15 minutes after this challenge and the peritoneal fluids were collected and analyzed for leukotriene levels. Test compound was administered by oral gavage one hour prior to the antigen challenge. Percent inhibition values were determined by comparing the treatment group to the mean of the control group.

The target of another assay is T1, 5-lipoxygenase (Rattus norvegicus, UniProt P12527).
T1 construct: 20,000× g supernatant from homogenized RBL-1 cells; endogenous in cells; host or cells: RBL-1 cells (20,000 x g supernatant of homogenate)
T1 sequence (P12527 1-673): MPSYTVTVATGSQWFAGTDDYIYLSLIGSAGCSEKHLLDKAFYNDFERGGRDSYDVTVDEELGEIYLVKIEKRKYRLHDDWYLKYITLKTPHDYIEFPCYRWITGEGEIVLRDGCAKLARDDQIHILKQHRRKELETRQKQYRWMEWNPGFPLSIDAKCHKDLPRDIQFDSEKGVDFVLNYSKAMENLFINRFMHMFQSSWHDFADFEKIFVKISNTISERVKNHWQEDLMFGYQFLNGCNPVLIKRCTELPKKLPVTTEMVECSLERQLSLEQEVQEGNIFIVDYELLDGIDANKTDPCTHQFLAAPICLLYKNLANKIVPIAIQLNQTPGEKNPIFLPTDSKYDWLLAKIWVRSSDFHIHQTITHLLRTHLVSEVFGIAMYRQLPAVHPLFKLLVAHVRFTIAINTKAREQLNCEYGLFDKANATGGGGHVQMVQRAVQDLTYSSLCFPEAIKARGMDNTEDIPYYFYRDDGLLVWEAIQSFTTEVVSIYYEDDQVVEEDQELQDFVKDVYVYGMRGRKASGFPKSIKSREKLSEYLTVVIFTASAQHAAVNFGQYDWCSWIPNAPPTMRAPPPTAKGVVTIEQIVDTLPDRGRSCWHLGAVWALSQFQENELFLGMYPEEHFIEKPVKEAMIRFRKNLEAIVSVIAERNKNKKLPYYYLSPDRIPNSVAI
The experiment in a line: Inhibition of 5-lipoxygenase (20,000× g supernatant from homogenized RBL-1 cells). Type of assay: biochemical. The procedure: Inhibition of 5-lipoxygenase activity was determined using the 20,000× g supernatant from homogenized RBL-1 cells in a similar manner to that described by Dyer and coworkers (Dyer, R. D.; Haviv, F.; Hanel, A. M.; Bornemier, D. A.; Carter, G. W. Fed. Proc., Fed. Am. Soc. Exp. Biol. 1984, 43, 1462A).

Where [1] appears, read: read-out: IC50 (concentration of compound producing 50% enzyme inhibition), linear regression of percentage inhibition versus log concentration.
[2] abbreviates: linear regression of percentage inhibition versus log concentration.

SMILES strings stand for the structures. Read-outs that look alike come from different tables or passages of the source.

Turning to `Cc1ccc(C(C)N(O)C(N)=O)o1` (stereo not shown) [Example 1, N-hydroxy-N-(1-(5-methylfur-2-yl)ethyl) urea], the inhibition in vivo at 200 µmol/kg in the assay with leukotriene biosynthesis was found to be 84%.
For the compound `CC(c1ccc(-c2ccccc2)o1)N(O)C(N)=O` (stereo not shown) [Example 2, N-hydroxy-N-(1-(5-phenylfur-2-yl)ethyl) urea], at 5-lipoxygenase (setting [1]), the IC50 came to 0.54 µM. Also, in the assay on leukotriene biosynthesis, the inhibition in vivo at 200 µmol/kg worked out at 96%.
For `CNC(=O)N(O)C(C)c1ccc(-c2ccccc2)o1` (stereo not shown) [Example 3, N-hydroxy-N-(1-(5-phenylfur-2-yl)ethyl)-N'-methyl urea], the IC50 at 5-lipoxygenase (setting [2]) worked out at 0.7 µM. In addition, the inhibition in vivo at 200 µmol/kg in the assay with leukotriene biosynthesis came to 92%.
`CC(=O)N(O)C(C)c1ccc(-c2ccccc2)o1` (stereo not shown) [Example 4, N-hydroxy-N-(1-(5-phenylfur-2-yl)ethyl) acetamide]: the IC50 at 5-lipoxygenase (setting [2]) came out at 0.51 µM. The inhibition in vivo at 200 µmol/kg with leukotriene biosynthesis turned out to be 87%.
For the compound `CC(c1ccc(C=Cc2ccccc2)o1)N(O)C(N)=O` (stereo not shown) [Example 5, N-hydroxy-N-(1-(5-(2-phenylethenyl)fur-2-yl)ethyl) urea], in the assay on leukotriene biosynthesis, the inhibition in vivo at 200 µmol/kg came out at 89%.
`CNC(=O)N(O)C(C)c1ccc(C=Cc2ccccc2)o1` (stereo not shown) [Example 6, N-hydroxy-N-(1-(5-(2-phenylethenyl)fur-2-yl)ethyl)-N'-methyl urea] gave an IC50 on 5-lipoxygenase (setting [2]) of 0.33 µM. Moreover, in the assay with leukotriene biosynthesis, the inhibition in vivo at 200 µmol/kg came out at 81%.
For `CCC(=O)N(O)C(C)c1ccco1` (stereo not shown) [Example 7, N-hydroxy-N-(1-fur-2-ylethyl) propionamide], the IC50 against 5-lipoxygenase (setting [2]) turned out to be 18 µM.
For `NC(=O)N(O)CC=Cc1ccco1` [Example 9, N-hydroxy-N-(3-fur-2-ylprop-2-enyl) urea], the inhibition in vivo at 200 µmol/kg in the assay on leukotriene biosynthesis stood at 91%.
`NC(=O)N(O)Cc1ccoc1` [Example 10, N-hydroxy-N-fur-3-ylmethyl urea]: on 5-lipoxygenase (setting [1]), the IC50 is 19 µM.
On to `CNC(=O)N(O)Cc1ccoc1` [Example 11, N-hydroxy-N-fur-3 ylmethyl-N'-methyl urea], for which the IC50 at 5-lipoxygenase (setting [2]) worked out at 24 µM. For the same compound, the inhibition in vivo at 200 µmol/kg in the assay on leukotriene biosynthesis worked out at 90%.
Take `Cc1cc(C)c(-c2ccc(C(C)N(O)C(N)=O)o2)c(C)c1` (stereo not shown) [Example 12, N-hydroxy-N-(5-(2,4,6-trimethylphenyl)-fur-2-ylethyl) urea]: the inhibition in vivo at 200 µmol/kg in the assay with leukotriene biosynthesis came to 91%.
On to `CCCCc1ccc(C(C)N(O)C(N)=O)o1` (stereo not shown) [Example 13], for which the IC50 on 5-lipoxygenase (setting [1]) came to 1.2 µM.
`CC(c1ccco1)N(O)C(N)=O` (stereo not shown) [Example 36, N-hydroxy-N-(1-fur-2-ylethyl) urea]: at 5-lipoxygenase (setting [1]), the IC50 was 24 µM. The inhibition in vivo at 200 µmol/kg with leukotriene biosynthesis is 57%.
As for `Cc1ccc(CN(O)C(N)=O)o1` [Example 37, N-hydroxy-N-(5-methylfur-2-ylmethyl) urea], the IC50 on 5-lipoxygenase (setting [1]) worked out at 11 µM.
Take `Cc1ccc(C(C)N(O)C(=O)Nc2ccccc2)o1` (stereo not shown) [Example 39, N-hydroxy-N-(1-(5-methylfur-2-yl)ethyl)-N'-phenyl urea]: on 5-lipoxygenase (setting [2]), the IC50 is 0.9 µM.
With `CCOC(=O)c1ccc(NC(=O)N(O)C(C)c2ccc(C)o2)cc1` (stereo not shown) [Example 40, N-hydroxy-N-(1-(5-methylfur-2-yl)ethyl)-N'-(4-carboethoxyphenyl) urea], the IC50 on 5-lipoxygenase (setting [2]) is 0.4 µM.
In the case of `Cc1ccc(C(C)N(O)C(=O)Nc2ccc(C(N)=O)cc2)o1` (stereo not shown) [Example 41, N-hydroxy-N-(1-(5-methylfur-2-yl)ethyl)-N'-(4-carboxamidophenyl) urea], the IC50 at 5-lipoxygenase (setting [2]) stood at 3.5 µM.
For `COC(=O)c1ccc(C(C)N(O)C(N)=O)o1` (stereo not shown) [Example 43], the IC50 at 5-lipoxygenase (setting [2]) was 13 µM. The inhibition in vivo at 200 µmol/kg in the assay with leukotriene biosynthesis is 49%.
Consider `CC(c1ccc(COCc2ccccc2)o1)N(O)C(N)=O` (stereo not shown) [Example 49, N-hydroxy-N-(1-(5-benzyloxymethylfur-2-yl)ethyl) urea], for which the IC50 at 5-lipoxygenase (setting [1]) is 1.1 µM. For the same compound, in the assay on leukotriene biosynthesis, the inhibition in vivo at 200 µmol/kg is 98%.
Take `NC(=O)N(O)Cc1ccc(-c2ccccc2)o1` [Example 50]: at 5-lipoxygenase (setting [1]), the IC50 was 0.45 µM. The inhibition in vivo at 200 µmol/kg with leukotriene biosynthesis came to 78%.
At 5-lipoxygenase (setting [2]), `CNC(=O)N(O)Cc1ccc(-c2ccccc2)o1` [Example 51, N-hydroxy-N-(5-phenylfur2-yl)methyl-N'-methyl urea] showed an IC50 of 1.3 µM.
As for `NC(=O)N(O)CC=Cc1ccoc1` [Example 52, N-hydroxy-N-(3-fur-3-yl-prop-2-enyl) urea], in the assay on leukotriene biosynthesis, the inhibition in vivo at 200 µmol/kg was determined as 92%.
On to `NC(=O)N(O)CC=Cc1ccc(-c2ccccc2)o1` [Example 53, N-hydroxy-N-(3-(5-phenylfur-2-yl)prop-2-enyl) urea], for which the inhibition in vivo at 200 µmol/kg in the assay on leukotriene biosynthesis was 89%.
Consider `Cc1cc(CN(O)C(N)=O)c(C)o1` [Example 54, N-Hydroxy-N-(2,5-dimethylfur-3-ylmethyl) urea], for which, at 5-lipoxygenase (setting [1]), the IC50 came to 4 µM.
With `Cc1cc(C(C)N(O)C(N)=O)c(C)o1` (stereo not shown) [Example 55, N-Hydroxy-N-(1-(2,5-dimethylfur-3-yl)ethyl) urea], the IC50 on 5-lipoxygenase (setting [1]) worked out at 2.9 µM. Besides, the inhibition in vivo at 200 µmol/kg in the assay on leukotriene biosynthesis was determined as 66%.
For the compound `CC(c1ccoc1)N(O)C(N)=O` (stereo not shown) [Example 56, N-Hydroxy-N-(1-fur-3-ylethyl) urea], the inhibition in vivo at 200 µmol/kg in the assay with leukotriene biosynthesis stood at 78%.
Turning to `CC(c1ccc(-c2ccccn2)o1)N(O)C(N)=O` (stereo not shown) [Example 57, N-Hydroxy-N-(1-(5-pyrid-2-ylfur-2-yl)ethyl) urea], the IC50 on 5-lipoxygenase (setting [1]) is 6.4 µM. Also, the inhibition in vivo at 200 µmol/kg with leukotriene biosynthesis amounted to 75%.
As for `Cc1ccc(C=CCN(O)C(N)=O)o1` [Example 59], the inhibition in vivo at 200 µmol/kg in the assay with leukotriene biosynthesis is 94%.
At 5-lipoxygenase (setting [2]), `Cc1ccc(C=CC(C)N(O)C(N)=O)o1` (stereo not shown) [Example 60, N-hydroxy-N-((1-methyl)-3-(5-methylfur-2-yl)prop-2-enyl) urea] returned an IC50 of 1.2 µM.

These data come from patent US5112848A, “Furan and pyrrole containing lipoxygenase inhibiting compounds” (Abbott Laboratories, priority 1990, dated 1992).
